Data taken from patent EP0046707B1, “Derivatives of 4-aminobutyric acid and the medicines especially active on the central nervous system containing them” (priority 1980, dated 1982).
Where two headings read alike, the source gives them in different places.

Legend:
[1] = tested on: rats; test: Electroencephalographic study (sleep/wake analysis per 24 h); type: in vivo; conditions: rat; for EV / SL / SP / ST: per 24 h
Method: Pour mieux comprendre l'activité hypnotique des produits selon l'invention, une étude électroencéphalographique a été effectuée sur l'un deux, à savoir CM 40039.
[…] Après une période d'habituation de 10 jours (période éclairée de 8 h à 20 h et période obscure de 20 h à 8 h), les animaux sont enregistrés pendant 5 jours avec le solvant (gomme arabique à 10 %), puis enregistrés pendant 4 jours pendant lesquels ils reçoivent le produit à 9 h chaque matin. Après cette administration chronique, les animaux sont enregistrés les 5 jours suivants (période de contrôle).
Les animaux sont enregistrés 24 h sur 24. L'étude statistique porte sur des tranches de 24 h. On fait une analyse globale sur les trois rats en cumulant les 15 journées témoins, les 12 journées de traitement, les 15 journées de contrôle. Dans chaque tranche horaire de 24 h, on évalue le temps d'éveil (EV), de sommeil lent (SL), de sommeil paradoxal (SP), de sommeil total (ST), ainsi que le rapport (en %) sommeil paradoxal/sommeil total (SP/ST) (voir tableau VII ci-après).

[2] = tested on: acide homovanillique (HVA); test: Effect on central dopaminergic activity (homovanillic acid accumulation in whole brain); type: in vivo, souris; conditions: mouse whole brain, 500 mg/kg p.os
Method: L'effet des produits sur l'activité dopaminergique centrale a été étudié par la mesure de l'accumulation de l'acide homovanillique sur une période de 24 h après l'administration des produits chez la souris.
Le taux d'acide homovanillique (HVA) est évalué dans le cerveau entier, les animaux reçoivent une injection de probenecid (200 mg/kg i.p.) 1 h 30 min avant le sacrifice (lot de 10 animaux).

[3] = tested on: souris; test: Anticonvulsant effect against bicuculline-induced tonic seizures; type: in vivo; conditions: 1 h; mouse, bicuculline 1 mg/kg i.v. 60 min after oral dosing; read-out: Dose efficace médiane de protection des crises toniques (DE 50) Bicuculline
Method: (§1) L'effet anticonvulsivant a été déterminé vis-à-vis des crises convulsives provoquées par l'électrochoc ou par la bicuculline.
La bicuculline est administrée à la souris par voie intraveineuse à raison de 1 mg/kg, 60 min après le produit à étudier donné per os. On note l'effet protecteur obtenu vis-à-vis des crises toniques.
(§2) En opérant sur divers lots d'animaux avec des doses différentes du produit à étudier, on peut déterminer la dose efficace médiane (DE 50).
(§3) Les résultats sont rassemblés dans le tableau VIII ci-après et montrent les propriétés anticonvulsivan- tes nettes des produits étudiés.

[4] = tested on: souris; test: Anticonvulsant effect against electroshock seizures; type: in vivo; conditions: 1 h; mouse, electroshock 12.5 V for 0.5 s, 60 min after oral dosing; read-out: Dose efficace médiane de protection des crises toniques (DE 50) Electrochoc
Method: as §1
L'électrochoc (12,5 V pendant 0,5 s) est effectué chez la souris 60 min après l'administration du produit par voie orale.
as §2, §3

[5] = tested on: GABA (acide amino-4 butyrique); test: Effect on whole-brain GABA level; type: in vivo, souris
Method: Le 40039 a été administré 30 min avant le sacrifice chez la souris. Le taux de GABA a été évalué sur le cerveau entier (lots de 6 animaux) (voir tableau IX ci-après).

[6] = tested on: souris; test: Actography (locomotor activity, two perpendicular light beams); type: in vivo; conditions: mouse, 500 mg/kg oral
Method: La mesure de l'actographie est effectuée chez la souris 45 min. après l'administration du produit. On opère sur des lots de 12 animaux, chacun d'eux étant isolé pendant 10 min. avant la mesure. Le comptage des scores est effectué par coupure de deux faisceaux lumineux perpendiculaires.
Dans le tableau IV ci-après sont rassemblés les résultats obtenus avec divers produits de l'invention administrés à la dose de 500 mg/kg par voie orale. Les résultats sont exprimés en pourcentage de variation des scores obtenus par rapport à des animaux témoins non traités.
On peut constater que les produits se répartissent en deux groupes : • ceux provoquant de l'hypomotilité tels que 40217, 40039, 40271, 40272, 40319; dans le cas où les animaux traités présentent une perte du réflexe de retournement, ce qui traduit l'effet de narcose propre du produit, on a noté PRR; • ceux provoquant de l'hypermotilité, tels que 40142, 40398, 40397, 40404, 40253, 40355, 40209; pour préciser les résultats obtenus, l'étude pour deux produits a été reprise en effet-dose suivant le même protocole. • Les résultats obtenus figurent dans le tableau V ci-après.

[7] = tested on: souris; test: Potentiation of pentobarbital narcosis (loss of righting reflex); type: in vivo; conditions: po; mouse, p. os 1 h before pentobarbital 20 mg/kg i.p.; unit not given for DE 50; read-out: dose (p. os) provoquant 50 % d'induction de narcose (DE 50)
Method: Les produits à étudier ont été administrés per os chez la souris à la dose de 500 mg/kg, 1 h avant le pentobarbital injecté par voie intrapéritonéale à raison de 20 mg/kg.
On détermine le pourcentage des animaux ayant perdu le réflexe de retournement. Les résultats sont exprimés en pourcentage ou, dans quelques cas, en dose efficace 50 (DE 50) ou dose provoquant la narcose chez 50 % des animaux traités.
Les résultats figurent dans le tableau VI ci-après.

[8] = Acute toxicity (mortality over 24 h); conditions: in vivo, po, mouse, observed 24 h
Method: Les produits à étudier sont administrés par voie orale aux doses de 500 et 1 000 mg/kg à des lots de souris. On observe les souris pendant 24 h et note la mortalité.
Les résultats exprimés en pourcentage de mortalité figurent dans le tableau XI ci-après.

[9] = post-treatment 'Contrôle' period

CCCCN(CCCC)C(=O)CCCNC(=O)CCC [40 039, Butyl-10 dioxo-4,9 diaza-5,10 tétradécane]
EV ([1]; 'Contrôle' = 5 days after end of chronic treatment): 40,3 ± 3,6
SP/ST [1, 9]: 13,5 ± 1,8%
SL [1, 9]: 51 ± 3
SP [1, 9]: 8,6 ± 1,7
ST [1, 9]: 59,6 ± 3,9
EV ([1]; treatment period (12 days pooled, 3 rats), 325 mg/kg as in table head, wake time): 40,6 ± 3
SP ([1]; treatment period, paradoxical sleep): 8,1 ± 1,4
SL ([1]; treatment period, slow-wave sleep): 51,5 ± 2
ST ([1]; treatment period, total sleep): 59,5 ± 2,6
SP/ST ([1]; treatment period, ratio paradoxical/total sleep): 13,2 ± 1,9%
Taux de HVA en ([2]; 2 h): 798 ± 34 ng/g
Taux de HVA en ([2]; 4 h): 894 ± 37 ng/g
Taux de HVA en ([2]; 6 h): 659 ± 29 ng/g
Taux de HVA (variation vs 0) ([2]; 6 h, change vs time 0): 0%
Taux de HVA en ([2]; 24 h): 441 ± 19 ng/g
Taux de HVA en ([2]; time 0 (baseline)): 658 ± 40 ng/g
ED50 [3]: 300 mg/kg
ED50 [4]: 250 mg/kg
Taux de GABA en µg/g cerveau ([5]; mouse whole brain, 500 mg/kg p. os, 30 min before sacrifice): 321 ± 12 µg/g cerveau
Taux de GABA p.cent/témoins ([5]; mouse whole brain, 500 mg/kg p. os, change vs controls): 14,6 p.cent
taux de GABA dans le cerveau total ([5]; mouse, result in words): rapide augmentation
Mesure de l'actographie (p. cent scores/témoins) ([6]; 45 min after dosing, change of scores vs untreated controls, PRR = loss of righting reflex): PRR
hypomotilité / hypermotilité ([6]; grouping in words): hypomotilité
ED50 [7]: 200 mg/kg
mortality at 24 h ([8]; 500 mg/kg p. os, read-out: p. cent de mortalité à 500 mg/kg p. os): 0%
mortality at 24 h ([8]; 1000 mg/kg p. os, read-out: p. cent de mortalité à 1000 mg/kg p. os): 100%
